Reference: patent US6511592B1, “Biosensor for pentachlorophenol” (ISIS Innovation Limited, priority 1998, dated 2003)

Columns and labels:
[1] = biological target: T1, pentachlorophenol hydroxylase (PCPH) (Sphingobium chlorophenolicum, UniProt P42535); settings: earlier investigation of the substrate range (Orser and co-workers); cited from earlier work
T1 sequence (P42535 2-538): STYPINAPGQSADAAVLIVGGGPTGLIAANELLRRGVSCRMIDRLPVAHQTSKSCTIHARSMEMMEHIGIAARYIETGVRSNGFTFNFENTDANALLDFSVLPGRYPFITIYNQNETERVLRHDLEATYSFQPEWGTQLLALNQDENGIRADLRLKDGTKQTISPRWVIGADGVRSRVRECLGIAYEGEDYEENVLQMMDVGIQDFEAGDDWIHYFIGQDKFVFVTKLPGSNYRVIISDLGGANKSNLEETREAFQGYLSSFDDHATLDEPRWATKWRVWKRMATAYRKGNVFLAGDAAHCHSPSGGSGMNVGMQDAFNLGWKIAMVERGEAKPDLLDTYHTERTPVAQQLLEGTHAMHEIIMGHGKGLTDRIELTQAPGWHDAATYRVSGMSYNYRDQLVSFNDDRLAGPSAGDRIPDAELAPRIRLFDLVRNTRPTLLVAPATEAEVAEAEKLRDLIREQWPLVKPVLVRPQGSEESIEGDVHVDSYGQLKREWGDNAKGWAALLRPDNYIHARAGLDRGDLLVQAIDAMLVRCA

[2] = biological target: T2, PCPH (Sphingobium chlorophenolicum, UniProt P42535); assay: Substrate range of PCPH, oxidation determined by gas chromatography; assay type: biochemical, Flavobacterum sp. (ATCC 53874); parameters: made in house; host or cells: E. coli strain DH5a (tac promoter vector)
Excerpt: Samples from the environment contain many other compounds which may be substrates for PCPH and therefore interfere with PCP biosensing. The substrate range of the PCPH enzyme was therefore investigated. The compounds tested as possible substrates were toluene, biphenyl, phenylcyclohexane, 1-phenylcyclohexene, diphenylmethane, bibenzyl and hexadecane, included as a model long-chain alkane.

[3] = biological target: T2, PCPH; assay: PCP concentration-dependent catalytic current, immobilised PCPH electrode
[4] = test system: PCPH; settings: -800 mV, aerobic, after 30 mins; cyclic voltammetry and gas chromatography of the organic extract

Clc1cc(Cl)c(Cl)c(Cl)c1Cl [pentachlorobenzene]
substrate of PCPH (oxidised / attacked) [1]: not

c1ccc(-c2ccccc2)cc1 [biphenyl]
oxidised by PCPH (substrate or not) [2]: None of the compounds except bibenzyl was oxidised by PCPH

c1ccc(C2CCCCC2)cc1 [phenylcyclohexane]
oxidised by PCPH (substrate or not) [2]: None of the compounds except bibenzyl was oxidised by PCPH

Cc1ccccc1 [toluene]
oxidised by PCPH (substrate or not) [2]: None of the compounds except bibenzyl was oxidised by PCPH

Oc1c(Cl)c(Cl)c(Cl)c(Cl)c1Cl [PCP, pentachlorophenol]
linear range of concentration dependence of the catalytic current ([3]; PCPH 87 μM in the solution evaporated on the electrode, FIG. 1): ca. 8 μM | linear range of concentration dependence of the catalytic current ([3]; PCPH 196 μM in the solution evaporated on the electrode, FIG. 2): ca. 25 μM | substrate of PCPH (oxidised / attacked) [1]: oxidised by PCPH | product of electrochemically driven oxidation by PCPH [4]: showed the presence of TeCH

C1=C(c2ccccc2)CCCC1 [1-phenylcyclohexene]
oxidised by PCPH (substrate or not) [2]: None of the compounds except bibenzyl was oxidised by PCPH

c1ccc(CCc2ccccc2)cc1 [bibenzyl]
oxidised by PCPH (substrate or not) [2]: a very small amount of product was detected

Oc1cccc(Cl)c1Cl [2,3-dichlorophenol]
substrate of PCPH (oxidised / attacked) [1]: poor substrate

c1ccccc1 [benzene]
substrate of PCPH (oxidised / attacked) [1]: not substrates

CCCCCCCCCCCCCCCC [hexadecane]
oxidised by PCPH (substrate or not) [2]: None of the compounds except bibenzyl was oxidised by PCPH

c1ccc(Cc2ccccc2)cc1 [diphenylmethane]
oxidised by PCPH (substrate or not) [2]: None of the compounds except bibenzyl was oxidised by PCPH
